Measured values taken from patent US6251903A, “Alkyl, azido, alkoxy, and fluoro-substituted and fused quinoxalinediones and the use thereof as glycine receptor antagonist” (priority 2000, dated 2001).
Read-outs that look alike come from different tables or passages of the source. Blank lines part the entries; values can stand above or below the compound they belong to.

Columns and labels:
[1] = target: NMDA receptor glycine sites; test: electrophysiological assay, cloned rat NMDA receptors expressed in Xenopus oocytes; type: cell-based; conditions: Table II; from electrophysiology using Xenopus oocytes
From the text: (§1) The binding affinities of quinoxaline-2,3-diones at NMDA receptor glycine sites also were estimated by electrophysiological assays with either cloned rat NMDA receptors expressed in Xenopus oocytes, or non-NMDA receptors expressed in oocytes by whole rat brain poly(A)^+ RNA. […] For NMDA receptors Ki values were approximated by averaging values at three subtype combinations (NR1A/NR2A, NR1A/NR2B, and NR1A/NR2C).

glycine binding site = glycine binding site (Rattus norvegicus, UniProt P35439); test: affinity for the glycine binding site / glycine/NMDA receptor (Ki; method not stated)
From the text: as §1

mice = test: anticonvulsant activity in maximum electroshock seizure (MES) experiments in mice; type: in vivo, male Swiss/Webster mice; conditions: for ED50 / ED100: Mus musculus; for ED50: read-out: ED50 (MES); for ED50 as an anticonvulsant in the MES experiment in mice: route not stated
Procedure: The seizure stimulus parameters were: 50 mA, 60 Hz, rectangular pulse, width 0.8 msec, duration 200 msec. Tonic hind limb extension observed after application of the electrical stimulus was recorded as occurrence of seizure. The drug was applied i.v. as an aqueous Tris (Tromethamine) solution.

[2] = tested on: glycine binding site of the NMDA receptor; conditions: literature, cited from earlier work

Ki [1]: 280 nM
Ki (glycine binding site; Table III, read-out: Ki): 280 nM
Structure (SMILES): [N-]=[N+]=Nc1c(F)cc2[nH]c(=O)c(=O)[nH]c2c1[N+](=O)[O-] [NO2 N3 F H, 6-Azido-7-fluoro-5-nitro-1,4-dihydroquinoxaline-2,3-dione]
ED50 (mice; iv, Table III, i.v. injection): 7.5 mg/kg

Ki (glycine binding site; Table I, read-out: Ki): 360 nM
Structure (SMILES): O=c1[nH]c2ccc(C(F)(F)F)cc2[nH]c1=O [CF3, reference compound]

Ki (glycine binding site; Table I, read-out: Ki): 2880 nM
Structure (SMILES): O=c1[nH]c2ccc(F)cc2[nH]c1=O [F, reference compound]

Structure (SMILES): COc1c(F)cc2[nH]c(=O)c(=O)[nH]c2c1[N+](=O)[O-] [NO2 OMe F H, 7-Fluoro-6-methoxy-5-nitro-1,4-dihydroquinoxaline-2,3-dione]
Ki [1]: 320 nM
Ki (glycine binding site): 320 nM
ED50 (MES) (mice; Table III, i.v. injection): 7.5 mg/kg

Ki [1]: 1200 nM
Structure (SMILES): Cc1cc([N+](=O)[O-])c2[nH]c(=O)c(=O)[nH]c2c1 [NO2 H Me H, 7-Methyl-5-nitro-1,4-dihydro-2,3-quinoxalinedione]

Ki [1]: 980 nM
Structure (SMILES): Cc1cc2[nH]c(=O)c(=O)[nH]c2cc1C [H Me Me H, 6,7-Dimethyl-1,4-dihydroquinoxaline-2,3-dione]

Ki [1]: 15 nM
Structure (SMILES): N#Cc1c(Cl)c(Cl)cc2[nH]c(=O)c(=O)[nH]c12 [CN Cl Cl H, 5-Cyano-6,7-dichloro-1,4-dihydroquinoxaline-2,3-dione]

Structure (SMILES): Cc1cc(C)c2[nH]c(=O)c(=O)[nH]c2c1 [Me H Me H, 5,7-Dimethyl-1,4-dihydro-2,3-quinoxalinedione]
Ki [1]: 1700 nM

Ki (glycine binding site; Table III, read-out: Ki): 70 nM
Structure (SMILES): O=c1[nH]c2cc(Cl)c(F)c([N+](=O)[O-])c2[nH]c1=O [NO2 F Cl H, 7-Chloro-6-fluoro-5-nitro-1,4-dihydroquinoxaline-2,3-dione]
ED50 (mice; iv, Table III, i.v. injection): 0.9 mg/kg

Ki (glycine binding site; Table IV, read-out: Ki): 320 nM
Structure (SMILES): O=c1[nH]c2cc(C(F)(F)F)cc(Cl)c2[nH]c1=O [Cl H CF3 H]
ED100 (mice; Table IV, i.v.): 20 to 25 mg/kg
ED50 (mice; Table IV, i.v.): 10 mg/kg
IV peak of action (mice; Table IV, i.v.): 15 min
% protection after 60 min. (mice; i.v., 20 mg/kg): 62%

Ki (glycine binding site; Table IV, read-out: Ki): 95 nM
Structure (SMILES): O=c1[nH]c2cc(C(F)(F)F)cc([N+](=O)[O-])c2[nH]c1=O [NO2 H CF3 H, 7-trifluoromethyl-5-nitro-1,4-dihydroquinoxaline-2,3-dione]
ED100 (mice; Table IV, i.v.): 40 mg/kg
ED50 (mice; Table IV, i.v.): 17 mg/kg
IV peak of action (mice; Table IV, i.v.): 30 min
% protection after 60 min. (mice; i.v., 40 mg/kg): 62%

Ki (glycine binding site; Table III, read-out: Ki): 8200 nM
Structure (SMILES): O=c1[nH]c2cc(F)c(F)cc2[nH]c1=O [H F F H, 6,7-Difluoro-1,4-dihydro-2,3-quinoxalinedione]
ED50 (mice; iv, Table III, i.v. injection): 15 mg/kg

Ki [1]: 11000 nM
Structure (SMILES): O=c1[nH]c2cc3ccccc3cc2[nH]c1=O [H CH=CHCH=CH H, 1,4-dihydrobenzo[g]quinoxaline-2,3-dione]

Ki [1]: 536 nM
Structure (SMILES): [N-]=[N+]=Nc1c(Cl)cc2[nH]c(=O)c(=O)[nH]c2c1Cl [Cl N3 Cl H, 6-azido-5,7-dichloro-1,4-dihydroquinoxaline-2,3-dione]

Structure (SMILES): Cc1cc2[nH]c(=O)c(=O)n(CC(=O)O)c2cc1C [Example 4a]
glycine site antagonism or affinity (words) [2]: functional antagonism

Ki [1]: 50 nM
Structure (SMILES): N#Cc1c(Cl)c([N+](=O)[O-])cc2[nH]c(=O)c(=O)[nH]c12 [CN Cl NO2 H, 6-Chloro-5-cyano-7-nitro-1,4-dihydroquinoxaline-2,3-dione]

Ki [1]: 1000 nM
Structure (SMILES): CCOc1c(F)cc2[nH]c(=O)c(=O)[nH]c2c1[N+](=O)[O-] [NO2 OEt F H, 7-Fluoro-6-ethoxy-5-nitro-1,4dihydroquinoxaline-2,3-dione]

Ki (glycine binding site; Table IV, read-out: Ki): 395 nM
Structure (SMILES): O=c1[nH]c2cc(Cl)cc(C(F)(F)F)c2[nH]c1=O [CF3 H Cl H]
ED100 (mice; Table IV, i.v.): 30 mg/kg
ED50 (mice; Table IV, i.v.): 10 mg/kg
IV peak of action (mice; Table IV, i.v.): 30 min
% protection after 60 min. (mice; i.v., 30 mg/kg): 87%

Ki (glycine binding site; Table I, read-out: Ki): 2470 nM
Structure (SMILES): Oc1nc2ccccc2nc1O [H, reference compound]

Structure (SMILES): Cc1cc2[nH]c(=O)c(=O)[nH]c2c([N+](=O)[O-])c1Cl [NO2 Cl Me H, 6-Chloro-7-methyl-5-nitro-1,4-dihydroquinoxaline-2,3-dione]
Ki [1]: 27 nM
Ki (glycine binding site): 27 nM
ED50 as an anticonvulsant in the MES experiment in mice (mice): 2 mg/kg

Structure (SMILES): O=c1[nH]c2cc(Cl)c(Cl)cc2[nH]c1=O [6,7-dichloro-1,4-dihydroquinoxaline-2,3-dione]
glycine site antagonism or affinity (words) [2]: competitive antagonist specific to the strychnine-insensitive [^3 H] glycine binding sites
glycine site antagonism or affinity (words) ([2]; listed as drawing 6): competitively displaced the strychnine-insensitive binding of [^3 H]glycine, without affecting the other binding sites on the NMDA receptor complex

Structure (SMILES): Oc1nc2cc(F)c(Cl)c(F)c2nc1O [F Cl F H, 6-Chloro-5,7-difluoro-1,4-dihydroquinoxaline-2,3-dione]
Ki (glycine binding site): 1000 nM
ED50 (mice; iv, Table III, i.v. injection): 10 mg/kg

Ki [1]: 71 nM
Structure (SMILES): [N-]=[N+]=Nc1c(Cl)c(Cl)cc2[nH]c(=O)c(=O)[nH]c12 [N3 Cl Cl H, 5-Azido-6,7-dichloro-1,4-dihydroquinoxaline-2,3-dione]

Ki (glycine binding site; Table III, read-out: Ki): 43 nM
Structure (SMILES): O=c1[nH]c2cc(F)c(Br)c([N+](=O)[O-])c2[nH]c1=O [NO2 Br F H, 6-Bromo-7-Fluoro-5-nitro-1,4-dihydroquinoxaline-2,3-dione]
ED50 (mice; iv, Table III, i.v. injection): 3.5 mg/kg

Ki (glycine binding site; Table I, read-out: Ki): 4890 nM
Structure (SMILES): N#Cc1ccc2nc(O)c(O)nc2c1 [CN, reference compound]

Ki [1]: 800 nM
Structure (SMILES): O=c1[nH]c2cc3c(c([N+](=O)[O-])c2[nH]c1=O)CCC3 [NO2 CH2 CH2 CH2 H, 5-Nitrocyclopento[g]-1,4-dihydroquinoxaline-2,3-dione]

Ki [1]: 500 nM
Structure (SMILES): CCSc1c(Cl)cc2[nH]c(=O)c(=O)[nH]c2c1[N+](=O)[O-] [NO2 SEt Cl H, 7-Chloro-1,4-dihydro-6-ethylthio-5-nitroquinoxaline-2,3-dione]

Ki (glycine binding site; Table I): inactive
Structure (SMILES): Nc1ccc2[nH]c(=O)c(=O)[nH]c2c1 [NH2, reference compound]

Structure (SMILES): Cc1c(F)cc2[nH]c(=O)c(=O)[nH]c2c1[N+](=O)[O-] [NO2 Me F H, 7-Fluoro-6-methyl-5-nitro-1,4-dihydro-2,3-quinoxalinedione]
Ki [1]: 53 nM
Ki (glycine binding site): 53 nM
ED50 (MES) (mice; Table III, i.v. injection): 2 mg/kg
ED50 as an anticonvulsant in the MES experiment in mice (mice): 2 mg/kg

Ki [1]: 6300 nM
Structure (SMILES): O=c1[nH]c2cc3c(cc2[nH]c1=O)CCC3 [H CH2 CH2 CH2 H, Cyclopento[g]-1,4-dihydroquinoxaline-2,3-dione]

Structure (SMILES): O=c1[nH]c2cc(Cl)c(Cl)c([N+](=O)[O-])c2[nH]c1=O [6,7-dichloro-5-nitro-1,4-dihydroquinoxaline-2,3-dione, reference compound]
ED50 (MES) (mice; Table IV, i.v.): 4 to 5 mg/kg
ED100 (MES) (mice; Table IV, i.v.): 7 to 10 mg/kg
IV peak of action (mice; Table IV, i.v.): 5 min
% protection after 60 min. (mice; i.v., 10 mg/kg): 55%
ED50 as an anticonvulsant in the MES experiment in mice (mice): 4 to 5 mg/kg

Ki [1]: 900 nM
Structure (SMILES): CCc1cc(Br)cc2[nH]c(=O)c(=O)[nH]c12 [Et H Br H, 7-Bromo-5-ethyl-1,4-dihydroquinoxaline-2,3-dione]

Ki (glycine binding site; Table III, read-out: Ki): 2970 nM
Structure (SMILES): O=c1[nH]c2cc(F)c(F)c(F)c2[nH]c1=O [F F F H, 5,6,7-Trifluoro-1,4-dihydro-2,3-quinoxalinedione]
ED50 (mice; iv, Table III, i.v. injection): 4 to 5 mg/kg
ED100 (mice; Table IV, i.v.): 15 to 20 mg/kg
ED50 (MES) (mice; Table IV, i.v.): 4 to 5 mg/kg
IV peak of action (mice; Table IV, i.v.): 2 min
% protection after 60 min. (mice; i.v., 10 mg/kg): 0%
protection against MES after 60 min. (mice; i.v., after 60 min): no more protection was observed

Ki (glycine binding site; Table III, read-out: Ki): 180 nM
Structure (SMILES): O=c1[nH]c2cc(F)c(Cl)c([N+](=O)[O-])c2[nH]c1=O [NO2 Cl F H, 6-Chloro-1,4-dihydro-7-fluoro-5-nitroquinoxaline-2,3-dione]
ED50 (mice; iv, Table III, i.v. injection): 4 to 5 mg/kg

Ki (glycine binding site; Table I, read-out: Ki): 1390 nM
Structure (SMILES): O=[N+]([O-])c1ccc2nc(O)c(O)nc2c1 [NO2, reference compound]
